In publication PMC7686308, “Overcoming the blood–brain barrier by Annexin A1-binding peptide to target brain tumours” (British Journal of Cancer, 2020):
Ends that are not written are not given here.

Experiments:
B16 cells = assay: Cytotoxicity on B16 cells (CellTiter Glo); type: cell-based, mouse; settings: B16, 2 days, CellTiter Glo, GraphPad Prism; for IC50: unit from plot axis
Description: (§1) Drug concentration (OM) Drug concentration ( nM) […]
(§2) Supplementary Fig 7 . Cytotoxicity of peptide-conjugated SN38, free peptide s and unconjugated SN-38 and irinotecan (CPT-11) on C6 and B16 cells cultured in vitro. Rat glioma C6 and mouse melanoma B16 cells were treated with reagents shown along the top panels at the concentration indicated and cultured for 2 days. Cell viability was determined by a CellTiter Glo (Promega) assay. The IC50 of each reagent was determined using GraphPad Prism program. N.D.: not determined.

[1] = system: B16-Luc brain and subcutaneous tumours; assay: B16-Luc dual-tumour model in C57BL/6 mice; type: in vivo, mouse (C57BL/6); settings: irinotecan 50 μmoles/kg i.v. daily, 6 days
Description: C6-Luc cells (5 × 10^4 suspended in 2 μl PBS) were injected into C57BL/6 mouse brain striatum using a stereotaxic frame as described previously.[21] Seven days later, mice underwent imaging for luciferase-expressing tumours. To do so, 100 μl luciferin (30 mg/ml PBS) was injected peritoneally. Mice were then anesthetised under isoflurane gas (20 ml/min) supplemented with oxygen (1 ml/min) and placed under a camera equipped with a Xenogen IVIS 200 imager at both the SBP and AIST animal facilities. Photon numbers were measured for 1–10 sec or for 1 min. For the dual-tumour model, C6-Luc cells were similarly injected into the brain of NOD-SCID mice. When a brain tumour became detectable by IVIS imager, C6-Luc cells (2 × 10^5 suspended in 100 μl PBS) were injected subcutaneously into the dorsal flank of the same mice. Photon numbers in brain and subcutaneous tumours were measured using the IVIS imager. The dual-tumour model was also produced using B16-Luc cells in the isogeneic C57BL/6 mouse. B16-Luc cells (5 × 10^4) were injected into brains of 8–10-weeks-old C57BL/6 female mice as described above for C6-Luc cells. When brain tumours became detectable, B16-Luc cells (2 × 10^5 cells) were injected subcutaneously into the dorsal flank of the same mouse.
IF7C(RR)-SN38 was injected intravenously through the tail vein into tumour-bearing mice once photon number of C6-Luc brain tumour reached 5 × 10^4, which usually occurred after 2 weeks. IF7C(RR)-SN38 (142 μg or 0.0567 μmoles) dissolved in 10 μl dimethylsulfoxide (DMSO) diluted with 100 μl of 50% Cremophore EL in ethanol plus 90 μl PBS was injected intravenously through the tail vein. As the average body weight of a mouse was 18 g, IF7C(RR)-SN38 dose per injection was 3.15 μmoles/kg. For B16-Luc brain tumours, IF7C(RR)-SN38 formulated with Cremophore EL was used at the dosage 7.0 μmoles/kg. Irinotecan (CPT-11), a water soluble SN38 prodrug, was dissolved in PBS and intravenously injected into mice at 50 μmoles /kg. In another set of experiments, brain tumour-bearing mice were treated with IF7C(RR)-SN38 (100 μg or 0.0412 μmoles) dissolved in 10 μl DMSO followed by dilution with 100 μl 10% Solutol HS15 in water. In that case, drug dosage was 2.5 μmoles/kg. Similarly formulated C(RR)-SN38 served as control.
Fig. 4 Effect of IF7C(RR)-SN38 on the dual-tumour model mice. a Dual-tumour model was established with C6-Luc cells in NOD-SCID mice. C6-Luc cells were grown both in brain and under the skin of mice. When tumours in brain and subcutaneous grew by showing photon number more than 2×10^4, IF7C(RR)-SN38 (3.15 μmoles/kg) was injected intravenously daily through tail vein for 9 days. b Effect of IF7C(RR)-SN38 on a dual-tumour model with B16-Luc melanoma cells in C57BL/6 mice. Growth of B16-Luc cells were monitored as in a similar manner as in a, followed by intravenous injection with either IF7C(RR)-SN38 (7.0 μmoles/kg), irinotecan (CPT-11) (50 μmoles/kg) or buffer control daily for 6 days. The drug was diluted in Cremophore EL. In each a and b, error bars denote means ± SEM. Statistical analysis was assessed by Student’s t-test.

C6 cells = assay: Cytotoxicity on C6 cells (CellTiter Glo); type: cell-based, rat; settings: C6, 2 days, CellTiter Glo, GraphPad Prism; for IC50: unit from plot axis
Description: as §1, §2

[2] = system: N-terminally His-tagged ANXA1; assay: FCS binding to N-terminally His-tagged ANXA1; parameters: species or system human; settings: IF7C-A546, 37 °C, 1 h, diffusion time
Description: (§3) A mixture of IF7C-A546 with Anxa1 or MC16 (50 μl) was loaded into each well of a 96-well plate and incubated at 37 °C for 1 h. FCS was performed with the MF20 analytical system (Olympus) using a 543 nm He–Ne laser for illumination. Each sample was measured five times with a data acquisition time of 10 sec per measurement. IF7C(RR) binding was defined as an increase in translational diffusion time relative to a control.
(§4) Fig. 2 Binding of IF7 to the ANXA1 N-terminal domain and full-length ANXA1 protein in vitro. a Plate binding assay of N-terminal biotinylated IF7C(RR) to human MC16 peptide and its mutants. Each synthetic MC16 and its mutant peptide (10 nmoles) was bound to maleimide-activated plastic well through its C-terminal cysteine residue. Biotinylated IF7C(RR) peptide (1 μg/mL) was added to each well and binding of biotinylated peptide was detected by peroxidase-conjugated streptavidin and peroxidase colour reaction. b FCS analysis of IF7 with ANXA1 (left) and with MC16 peptides (right) in solution. […] The proposed model was further validated by dG scoring, which was calculated using MOE software with GBVI/WSA, a program allows us to compare calculated and observed energetics.[59] The IF7 docking pose was calculated to be −3.7 kcal/mol.

[3] = system: ANXA1 exhibiting a free N-terminus; assay: FCS binding to ANXA1 with free N-terminus; parameters: species or system human; settings: IF7C-A546, 37 °C, 1 h, increase in diffusion time
Description: as §3, §4

[4] = target: T1, MC16 (Annexin A1 N-terminal peptide), tetrameric (Homo sapiens); assay: QCM
T1 chain: MAMVSEFLKQAWFIEC

Annexin A1 = target: T2, Annexin A1 (Homo sapiens, UniProt P04083); assay: QCM
T2 chain: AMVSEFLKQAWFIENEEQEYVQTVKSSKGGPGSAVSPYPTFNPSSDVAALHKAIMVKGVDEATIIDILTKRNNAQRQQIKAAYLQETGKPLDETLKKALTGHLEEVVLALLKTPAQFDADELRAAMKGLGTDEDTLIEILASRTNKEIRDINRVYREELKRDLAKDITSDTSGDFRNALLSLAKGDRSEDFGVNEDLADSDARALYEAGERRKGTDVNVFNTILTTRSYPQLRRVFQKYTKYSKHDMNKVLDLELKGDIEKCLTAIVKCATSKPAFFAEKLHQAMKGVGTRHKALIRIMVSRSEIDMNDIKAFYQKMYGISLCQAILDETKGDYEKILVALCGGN

## CCc1c2c(nc3ccc(OC(=O)N4CCC(N5CCCCC5)CC4)cc13)-c1cc3c(c(=O)n1C2)COC(=O)[C@]3(O)CC [Irinotecan]
B16 cells
  logIC50: 4.443
B16 cells; Mus musculus, 48 h
  IC50: 27700 nM
[1]
  brain tumour growth (photon number): minimally suppressed brain tumour growth
  subcutaneous tumour growth (photon number): suppressed subcutaneous tumour growth
C6 cells
  logIC50: 4.103
C6 cells; Rattus norvegicus, 48 h
  IC50: 12700 nM

## CCc1c2c(nc3ccc(O)cc13)-c1cc3c(c(=O)n1C2)COC(=O)[C@]3(O)CC [SN-38]
B16 cells
  logIC50: 1.499
  IC50: 31.6 nM
C6 cells
  logIC50: 1.433
  IC50: 27.1 nM

## IFLLWQRCRR [IF7C(RR), IF7 with C-terminal cysteine extended by two arginines]
[2]
  binding in solution to N-terminally His-tagged ANXA1: did not significantly increase
[3]
  binding in solution to untagged ANXA1: increased significantly compared to the control

B1: IF7C(RR) peptide (peptide)
chain: IFLLWQRCRR
modifications: not fully specified (residue 8); also: tetramer on 4-arm PEG via Cys
[4]
  Kd: 247 nM

B2: IF7C(RR) peptide (peptide)
chain: IFLLWQRCRR
Annexin A1
  Kd: 60.1 nM
